Source: EP3929184A1, “((((3-HALOPHENYL)(PHENYL)METHYL)SULFINYL)METHYL)THIOPHENE COMPOUNDS AND DIASTEREOMERIC FORMS THEREOF FOR USE IN IMPROVING COGNITIVE FUNCTIONS” (Red Bull GmbH, priority 2020, dated 2021)

Assays:
[1] = system: presynaptic cells; test: Dopamine release from presynaptic cells; type: cell-based; details: different from compounds such as Amphetamines
[2] = system: young rats; test: Reversal of scopolamine effect in young rats; type: in vivo

With `[O-][S+](Cc1cccs1)C(c1ccccc1)c1cccc(Br)c1` [2-2, 2-(((((R),(R)-3-bromophenyl)(phenyl)methyl)sulfinyl)methyl)thiophene] the “release of dopamin from presynaptic cells” value [1] was “does not induce release” and the “effect of compounds such as scopolamine” value [2] was “reversed”.
